Results on one compound are retold here after patent US8207142B2, “Inhibitor of DNA methylation” (priority 2001, dated 2012).

For one data set, the system named is N. crassa. It is filed as cell-based. The note with it: Neurospora crassa, 400 nmoles. The procedure:
Strains with mutations in dim-2 lack all detectable methyltransferase activity. A dim-2 strain (N613) and a wild-type control (N242) were challenged with a high concentration of Zebularine. The concentration of Zebularine is indicated above the plates and was applied to the paper disc as in FIG. 5; no hygromycin was applied to these plates.
(§1) Plate tests were performed with solidified medium essentially as previously described (Selker, Proc. Natl. Acad. Sci. USA 95;9430-9435, 1998). In brief, approximately 2,000 N. crassa conidia of the indicated were plated on each plate. Drugs were administered from a 4-mm diameter Whatman™ no. 1 paper disk placed in the middle of each plate shortly after plating.
Strains with mutations in dim-2 lack all detectable methyltransferase activity (Kouzminova and Selker, “Dim-2 encodes a DNA-methyltransferase responsible for all known cytosine methylation in Neurospora,” EMBO J. Aug. 1, 2001). In order to examine whether Zebularine toxicity is mediated by its methyltransferase-inhibitory activity, dim-2 strain (N613) and a wild-type control (N242) were challenged with a high concentration (400 nmoles) of Zebularine. No hygromycin was applied to these plates.

For a further data set, the system named is silenced hph gene. In words: Plate assay, reactivation of the methylation-silenced hph gene (hygromycin resistance), strain N644. The format is cell-based, Neurospora crassa. The settings on record: 2.5-400 nmoles on paper disc. As to the method: FIG. 5 is a series of photographs of plate assays, showing reactivation of the silenced hph gene in Neurospora crassa by Zebularine. N. crassa strain N644 has a single copy of the E. coli hph gene that was silenced by cytosine methylation. The active hph gene confers hygromycin resistance.
Treatments are indicated above each plate; the listed compound was applied to the paper discs in the middle of each plate. With the exception of the “no hygromycin” plate, all plates had 5 mg hygromycin B added in a 5 ml 0.7% agar overlay after 24 hours growth at 32° C. The plates were then incubated an additional two days at the same temperature and photographed.
as §1
N. crassa was used to quantitatively examine the effectiveness of Zebularine at reducing or reversing methylation (Selker, Proc. Natl. Acad. Sci. USA, 95:9430-9435, 1998). […]

In data set [1] the test system is human p16 cDNA in EJ6 tumor cells. The experiment in a line: RT-PCR of p16 gene expression in EJ6 tumor cells growing in mice. It is filed as in vivo. The note with it: EJ6 tumor cells in BALB/c nu/nu mice after treatment. The procedure: Total RNA was isolated from the tumors to analyze gene expression using conventional methods. DNA also was isolated, to measure the methylation status of p16 promoter by Ms-SnuPE as described below.
GAPDH mRNA levels were measured to control for the quantity and integrity of the input RNA. The control group represents tumors obtained from mice mock-treated either with 0.45% NaCl via intraperitoneal injection or oral gavage feeding. Results from one of six similar independent tumors are shown for each group in FIG. 15.

The nature of data set [2]: Body weight of tumor-bearing BALB/c nu/nu mice. The format is in vivo. As to the method:
EJ6 cells (5×10^5/injection) were inoculated subcutaneously into the right and left flanks of male BALB/c nu/nu mice at 4-6 weeks of age (available from Harlan, San Diego, Calif.). Zebularine treatments were initiated after macroscopic (50-200 mm 3) tumor formation (4-6 weeks later). Zebularine (500 mg/kg or 1000 mg/kg) was administered daily via intraperitoneal injection or oral gauage feeding over a period of 18 days. Control mice received 0.45% saline administered via intraperitoneal injection or oral gavage feeding over a period of 18 days. Mice (n=30) were divided into five groups (control group, 500 mg/kg intraperitoneal injection, 500 mg/kg oral, 1000 mg/kg intraperitoneal injection, and 1000 mg/kg oral). Each treatment group consisted of a minimum of five animals (at least 6 tumors per group).
Similarly, each group of mice (n=5 or 6) was weighed at the indicated time points, and average body weight was plotted against days after initial treatment in FIG. 14.

The next data set has as its system T24 cells. The experiment in a line: Incorporation of Zebularine into DNA and RNA in T24 cells. It is filed as in vitro ADME, human. The settings on record: 10 μM, 1 μCi, 24 hr. The procedure:
FIG. 19 is a bar graph depicting the relative incorporation of Zebularine into DNA and RNA in T24 cells, showing that approximately 7 times the amount of Zebularine is incorporated into RNA as DNA.
Following a similar incubation protocol in T24 cells (Zebularine (10 μM, 1 μCi) for 24 hr, cellular DNA and RNA were isolated by the tri-reagent method according to the manufacture's instructions. Levels of Zebularine and 2′-Deoxyzebularine were determined by measuring total radioactivity in purified RNA and DNA, respectively. The identity of Zebularine and 2′-Deoxyzebularine was accomplished by a reverse phase HPLC analysis of digested RNA and DNA and comparison against authentic standards. In FIG. 19 a bar graph depicts the relative incorporation of Zebularine into DNA and RNA in T24 cells, showing that approximately 7 times the amount of Zebularine is incorporated into RNA as DNA.

The next data set addresses T1, DNMT3b3 (Homo sapiens, UniProt Q9UBC3).
T1 construct: protein extracts were isolated from both treated and untreated T24; endogenous in cells; host or cells: T24 human bladder carcinoma cells (ATCC)
In words: Western blot of DNMT3b3 level in treated T24 cells. It is filed as cell-based. The note with it: 500 μM for 48 h. As to the method:
The mRNA for DNMT3b3 is the only 3b transcript expressed in T24 cells, and DNMT3a levels could not be assessed because no suitable antibodies against DNMT3a are available. Thus, with reference to FIG. 12, protein extracts were isolated from both treated and untreated T24 (population 3 million cells, treated with 500 μM Zebularine for 48 h), and […] with specific antibodies for DNMT1 and DNMT3b3 as shown in FIG. 12. β-actin was included as a loading control, and the molecular weights of each protein are indicated.

Turning to `O=c1ncccn1[C@@H]1O[C@H](CO)[C@@H](O)[C@H]1O` [Zebularine, 1-β-ribofuranosyl-1,2-dihydropyrimidin-2-one], the “region of conidia toxicity around the filter disk, dim-2 vs wild type” value in the data set on N. crassa is “roughly equivalent in both dim-2 and wildtype strains”. In addition, the “reactivation of silenced hph gene (conidia growth on hygromycin)” value in the data set on silenced hph gene is recorded as “reactivate the hph gene”. For the same compound, the “p16 gene expression in vivo (RT-PCR)” value in data set [1] is given as “Reactivation of p16 gene expression”. Further, the weight loss result in data set [2] (all treated groups: 500 or 1000 mg/kg daily, intraperitoneal or oral, 18 days) was “weight loss was minimal”. Moreover, the greatest weight loss in data set [2] (group treated with 1000 mg/kg) is recorded as roughly 7%. In addition, the “amount incorporated into RNA relative to DNA” value in the data set with T24 cells is reported as “approximately 7 times”. Moreover, at DNMT3b3, the “level of DNMT3b3” value is recorded as “significant reduction”.
